Counter-ions that a name gives are not always drawn. Like-named read-outs stand apart in the source and are kept apart here.
Target: T1, human muscarinic acetylcholine M1 receptor (Homo sapiens, UniProt P11229)
T1 construct: expressed in transfected cells; host or cells: CHO-K1
T1 sequence (P11229 1-460): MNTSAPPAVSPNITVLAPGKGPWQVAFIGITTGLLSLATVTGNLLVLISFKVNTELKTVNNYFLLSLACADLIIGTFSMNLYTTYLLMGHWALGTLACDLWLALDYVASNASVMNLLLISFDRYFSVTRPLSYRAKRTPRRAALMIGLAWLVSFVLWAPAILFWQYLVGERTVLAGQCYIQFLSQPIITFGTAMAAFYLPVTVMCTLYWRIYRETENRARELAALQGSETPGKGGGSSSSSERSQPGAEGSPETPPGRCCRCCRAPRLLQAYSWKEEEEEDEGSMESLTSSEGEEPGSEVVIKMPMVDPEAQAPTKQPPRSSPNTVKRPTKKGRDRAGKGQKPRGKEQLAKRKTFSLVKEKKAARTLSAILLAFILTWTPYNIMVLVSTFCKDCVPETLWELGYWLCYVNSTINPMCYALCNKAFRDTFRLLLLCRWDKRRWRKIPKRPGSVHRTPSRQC
Experiment: M1 PAM Assay (IP-One HTRF, IP1 accumulation in M1-CHO cells)
Assay type: cell-based
Method: Then diluted compounds (0.6% DMSO final concentration) are added together with EC20 of acetylcholine and incubated with the cells for 30 min at 37° C., 5% CO2.
CHO-K1 cells stably transfected with human muscarinic acetylcholine M1 receptor are cultured in Ham's F12 medium containing 10% heat inactivated fetal calf serum, 2 mM L-glutamine and Penicillin-Streptomycin grown in a humidified atmosphere at 5% CO2/95% air at 37° C.

[1] = CHO-K1 cells stably transfected with human M1 receptor, compounds added with EC20 of acetylcholine (25 nM), 30 min, intracellular IP1 by IP-One HTRF, read-out: M1 PAM EC50

Row | Structure (SMILES) | EC50 [1] [µM] | EC50 [µM]
1 | Cc1nc2c3c(nn2c(C)c1Cl)CN(C(=O)c1ccc(F)cc1OCCc1cncc(F)c1)C3 [Example 43, (3-chloro-2,4-dimethyl-7H-pyrrolo[3′,4′:3,4]pyrazolo[1,5-a]pyrimidin-8(9H)-yl)(4-fluoro-2-(2-(5-fluoropyridin-3-yl)ethoxy)phenyl)methanone] | < 0.2 | 
2 | Cc1nc2c3c(nn2c(C)c1Cl)CN(C(=O)c1ccc(F)cc1OC1CN(CCF)C1)C3 [Example 46, (3-chloro-2,4-dimethyl-7H-pyrrolo[3′,4′:3,4]pyrazolo[1,5-a]pyrimidin-8(9H)-yl)(4-fluoro-2-((1-(2-fluoroethyl)azetidin-3-yl)oxy)phenyl)methanone] | 1 to 3 | 
3 | Cc1nc2c3c(nn2c(C)c1Cl)CN(C(=O)c1ccc(F)cc1OC1CCC(F)(F)CC1)C3 [Example 47, (3-chloro-2,4-dimethyl-7H-pyrrolo[3′,4′:3,4]pyrazolo[1,5-a]pyrimidin-8(9H)-yl)(2-((4,4-difluorocyclohexyl)oxy)-4-fluorophenyl)methanone] | 1 to 3 | 
4 | COCCN1[C@@H]2CC[C@H]1C[C@@H](Oc1cc(F)ccc1C(=O)N1Cc3nn4cc(Cl)cnc4c3C1)C2 [Example 52, (3-chloro-7H-pyrrolo[3′,4′:3,4]pyrazolo[1,5-a]pyrimidin-8(9H)-yl)(4-fluoro-2-{[(3-endo)-8-(2-methoxyethyl)-8-azabicyclo[3.2.1]oct-3-yl]oxy}phenyl)methanone] |  | 0.2 to 1
5 | CN1[C@@H]2CC[C@H]1C[C@@H](Oc1cc(F)ccc1C(=O)N1Cc3nn4cc(Cl)cnc4c3C1)C2 [Example 53, (3-chloro-7H-pyrrolo[3′,4′:3,4]pyrazolo[1,5-a]pyrimidin-8(9H)-yl)(4-fluoro-2-{[(3-endo)-8-methyl-8-azabicyclo[3.2.1]oct-3-yl]oxy}phenyl)methanone] |  | < 0.2
6 | Cc1nc2c3c(nn2c(C)c1Cl)CN(C(=O)c1ccc(F)cc1OC[C@H]1C[C@H](F)CN1)C3 [Example 55, (6-Chloro-5,7-dimethyl-1H,3H-2,4,7a,8-tetraaza-cyclopenta[a]inden-2-yl)-[4-fluoro-2-((2R,4S)-4-fluoro-pyrrolidin-2-ylmethoxy)-phenyl]-methanone] | 0.2 to 1 | 
7 | Cc1nc2c3c(nn2c(C)c1Cl)CN(C(=O)c1ccc(F)cc1OC[C@H]1CC(F)(F)CN1)C3 [Example 56, (6-Chloro-5,7-dimethyl-1H,3H-2,4,7a,8-tetraaza-cyclopenta[a]inden-2-yl)-[2-((R)-4,4-difluoro-pyrrolidin-2-ylmethoxy)-4-fluoro-phenyl]-methanone] | < 0.2 | 
8 | Cc1nc2c3c(nn2c(C)c1Cl)CN(C(=O)c1ccc(F)cc1O[C@H]1C[C@H]2CCC[C@@H](C1)N2C)C3 [Example 58, (3-chloro-2,4-dimethyl-7H-pyrrolo[3′,4′:3,4]pyrazolo[1,5-a]pyrimidin-8(9H)-yl)(4-fluoro-2-{[(3-endo)-9-methyl-9-azabicyclo[3.2.1]nonan-3-yl]oxy}phenyl)methanone] |  | 0.2 to 1
9 | O=C(c1ccc(F)cc1O[C@H]1C[C@H]2CC[C@@H](C1)N2CC1CC1)N1Cc2nn3cc(Cl)cnc3c2C1 [Example 59, (3-chloro-7H-pyrrolo[3′,4′:3,4]pyrazolo[1,5-a]pyrimidin-8(9H)-yl)(2-{[(3-endo)-8-(cyclopropylmethyl)-8-azabicyclo[3.2.1]oct-3-yl]oxy}-4-fluorophenyl)methanone] |  | < 0.2
10 | Cc1nc2c3c(nn2c(C)c1Cl)CN(C(=O)c1ccc(F)cc1OC[C@H]1C[C@@H](F)CN1)C3 [Example 60, (6-Chloro-5,7-dimethyl-1H,3H-2,4,7a,8-tetraaza-cyclopenta[a]inden-2-yl)-[4-fluoro-2-((2R,4R)-4-fluoro-pyrrolidin-2-ylmethoxy)-phenyl]-methanone] | < 0.2 | 
11 | Cc1nc2c3c(nn2c(C)c1Cl)CN(C(=O)c1ccc(F)cc1OC1CC(N)C1)C3 (stereo not shown) [Example 61, [2-(3-Amino-cyclobutoxy)-4-fluoro-phenyl]-(6-chloro-5,7-dimethyl-1H,3H-2,4,7a,8-tetraaza-cyclopenta[a]inden-2-yl)-methanone, hydrochloride] | < 0.2 | 
12 | Cc1nc2c3c(nn2c(C)c1Cl)CN(C(=O)c1ccc(F)cc1OCCN1CC[C@@H](F)C1)C3 [Example 62, (6-Chloro-5,7-dimethyl-1H,3H-2,4,7a,8-tetraaza-cyclopenta[a]inden-2-yl)-{4-fluoro-2-[2-((R)-3-fluoro-pyrrolidin-1-yl)-ethoxy]-phenyl}-methanone] | 0.2 to 1 | 
13 | CCN1[C@@H]2CC[C@H]1C[C@@H](Oc1cc(F)ccc1C(=O)N1Cc3nn4cc(Cl)cnc4c3C1)C2 [Example 63, (3-chloro-7H-pyrrolo[3′,4′:3,4]pyrazolo[1,5-a]pyrimidin-8(9H)-yl)(2-{[(3-endo)-8-ethyl-8-azabicyclo[3.2.1]oct-3-yl]oxy}-4-fluorophenyl)methanone] |  | < 0.2
14 | CCCN1[C@@H]2CC[C@H]1C[C@@H](Oc1cc(F)ccc1C(=O)N1Cc3nn4cc(Cl)cnc4c3C1)C2 [Example 64, (3-chloro-7H-pyrrolo[3′,4′:3,4]pyrazolo[1,5-a]pyrimidin-8(9H)-yl)(4-fluoro-2-{[(3-endo)-8-propyl-8-azabicyclo[3.2.1]oct-3-yl]oxy}phenyl)methanone] |  | < 0.2
15 | O=C(c1ccc(F)cc1O[C@H]1C[C@H]2CC[C@@H](C1)N2CC(F)F)N1Cc2nn3cc(Cl)cnc3c2C1 [Example 65, (3-chloro-7H-pyrrolo[3′,4′:3,4]pyrazolo[1,5-a]pyrimidin-8(9H)-yl)(2-{[(3-endo)-8-(2,2-difluoroethyl)-8-azabicyclo[3.2.1]oct-3-yl]oxy}-4-fluorophenyl)methanone] | 0.2 to 1 | 
16 | N#CCN1[C@@H]2CC[C@H]1C[C@@H](Oc1cc(F)ccc1C(=O)N1Cc3nn4cc(Cl)cnc4c3C1)C2 [Example 66, [(3endo)-3-{2[(3-chloro-7H-pyrrolo[3′,4′:3,4]pyrazolo[1,5-a]pyrimidin-8(9H)-yl)carbonyl]-5-fluorophenoxy}-8-azabicyclo[3.2.1]oct-8-yl]acetonitrile] |  | 0.2 to 1
17 | Cc1cncc(CCOc2cc(F)ccc2C(=O)N2Cc3nn4c(C)c(Cl)c(C)nc4c3C2)c1 [Example 67, (3-chloro-2,4-dimethyl-7H-pyrrolo[3′,4′:3,4]pyrazolo[1,5-a]pyrimidin-8(9H)-yl)(4-fluoro-2-(2-(5-methylpyridin-3-yl)ethoxy)phenyl)methanone] | 0.2 to 1 | 
18 | Cc1nc2c3c(nn2c(C)c1Cl)CN(C(=O)c1ccc(F)cc1OCC1(N)CC1)C3 [Example 68, (2-((1-aminocyclopropyl)methoxy)-4-fluorophenyl)(3-chloro-2,4-dimethyl-7H-pyrrolo[3′,4′:3,4]pyrazolo[1,5-a]pyrimidin-8(9H)-yl)methanone] | 1 to 3 | 
19 | Cc1nc2c3c(nn2c(C)c1Cl)CN(C(=O)c1ccc(F)cc1OC1CC(N(C)C)C1)C3 (stereo not shown) [Example 71, (6-Chloro-5,7-dimethyl-1H,3H-2,4,7a,8-tetraaza-cyclopenta[a]inden-2-yl)-[2-(3-dimethylamino-cyclobutoxy)-4-fluoro-phenyl]-methanone] | 0.2 to 1 | 
20 | COc1cncc(CCOc2cc(F)ccc2C(=O)N2Cc3nn4c(C)c(Cl)c(C)nc4c3C2)c1 [Example 72] | 1 to 3 | 
21 | CC(O)CN1[C@@H]2CC[C@H]1C[C@@H](Oc1cc(F)ccc1C(=O)N1Cc3nn4cc(Cl)cnc4c3C1)C2 (stereo partly drawn) [Example 73, (3-chloro-7H-pyrrolo[3′,4′:3,4]pyrazolo[1,5-a]pyrimidin-8(9H)-yl)(4-fluoro-2-{[(3-endo)-8-(2-hydroxypropyl)-8-azabicyclo[3.2.1]oct-3-yl]oxy}phenyl)methanone] |  | 0.2 to 1
22 | CN1[C@@H]2CC[C@H]1C[C@@H](Oc1cc(F)ccc1C(=O)N1Cc3nn4cc(C5CC5)cnc4c3C1)C2 [Example 74, (3-cyclopropyl-7H-pyrrolo[3′,4′:3,4]pyrazolo[1,5-a]pyrimidin-8(9H)-yl)(4-fluoro-2-{[(3-endo)-8-methyl-8-azabicyclo[3.2.1]oct-3-yl]oxy}phenyl)methanone] |  | < 0.2
23 | Cc1nc2c3c(nn2c(C)c1Cl)CN(C(=O)c1ccc(F)cc1OC1CCN(CC(O)C(F)(F)F)CC1)C3 (stereo not shown) [Example 75, (6-Chloro-5,7-dimethyl-1H,3H-2,4,7a,8-tetraaza-cyclopenta[a]inden-2-yl)-{4-fluoro-2-[1-(3,3,3-trifluoro-2-hydroxy-propyl)-piperidin-4-yloxy]-phenyl}-methanone] | 0.2 to 1 | 
24 | CCN1CCC(Oc2cc(F)ccc2C(=O)N2Cc3nn4c(C)c(Cl)c(C)nc4c3C2)CC1 [Example 76, (6-Chloro-5,7-dimethyl-1H,3H-2,4,7a,8-tetraaza-cyclopenta[a]inden-2-yl)-[2-(1-ethyl-piperidin-4-yloxy)-4-fluoro-phenyl]-methanone] | < 0.2 | 
25 | CCCN1CCC(Oc2cc(F)ccc2C(=O)N2Cc3nn4c(C)c(Cl)c(C)nc4c3C2)CC1 [Example 77, (6-Chloro-5,7-dimethyl-1H,3H-2,4,7a,8-tetraaza-cyclopenta[a]inden-2-yl)-[4-fluoro-2-(1-propyl-piperidin-4-yloxy)-phenyl]-methanone] | < 0.2 | 

From patent US9505769B2 (ASCENEURON SA, priority 2013, dated 2016)
